Results on 3 compounds are retold here after patent publication US20160200684A2, “Pharmaceutical Compositions for the Treatment of CFTR-Mediated Disorders” (Vertex Pharmaceuticals Incorporated, priority 2012, published 2016).

Common to all, as to assay type: physicochemical
The nature of data set [1]: Stability of Compound 2 aqueous suspension in 0.5% methylcellulose. The settings on record: room temperature; methylcellulose formulation. On the procedure:
A 100 mL stock solution of 0.5% by weight methylcellulose was prepared by stirring 0.5 g of methylcellulose with 99.5 g of purified water until completely dissolved (approximately 24 hours). The appropriate amount of Compound 2 HCl salt based on free base was weighed and transferred to a scintillation vial. The desired amount of 0.5% methylcellulose stock solution for making a 6 mg/mL based on free base (6.48 mg/mL based on HCl salt) was transferred into the vial and sonicated for 20 minutes and homogenized for approximately 5 minutes.

The nature of data set [2]: Stability of Compound 2 aqueous suspension in 0.5% methylcellulose/0.5% polysorbate 80. The settings on record: for conversion of salt form in suspension vehicle: at T(0), XRPD, 1H NMR. How it is done:
Methylcellulose (0.5 g) was combined with 99.0 g of purified water in a beaker and stirred in a 60-70° C. water bath for 30′-1 hr. The solution was stirred in a 0° C. ice/water bath for another 30′ or until clear. Polysorbate 80 (0.5 g) was added and stirring at room temperature followed for 30′-1 hr or until a clear solution was obtained.
The appropriate amount of Compound 2 HCl salt based on free base was weighed and transferred to a scintillation vial. The desired amount of 0.5% methylcellulose and 0.5% polysorbate 80 stock solution for making a 6 mg/mL based on free base (6.48 mg/mL based on HCl salt) was transferred into the vial and sonicated for 20 minutes with alternate stirring for 1-2 minutes. The solution was homogenized for approximately 1-2 minutes.

Data set [3] is described as follows: Solubility of Compound 3 in solvents.
Setting [4] is: 0.5% methylcellulose/0.5% polysorbate 80.

Where two headings read alike, the source gives them in different places. Where only a bound is given, the exact number is not on record here.

Consider `Cc1ccc(NC(=O)C2(c3ccc4c(c3)OC(F)(F)O4)CC2)nc1-c1cccc(C(=O)O)c1` [Compound 2 Form I, 3-(6-(1-(2,2-difluorobenzo[d][1,3]dioxol-5-yl)cyclopropanecarboxamido)-3-methylpyridin-2-yl)benzoic acid], for which the “physically and chemically stable, no sign of chemical degradation” value in data set [1] was “at least 24 hrs”. For the same compound, in data set [2] (room temperature, 0.5% methylcellulose/0.5% polysorbate 80 formulation vehicle), the “chemically stable, no sign of chemical degradation” value is “at least 24 hrs”.
With `Cc1ccc(NC(=O)C2(c3ccc4c(c3)OC(F)(F)O4)CC2)nc1-c1cccc(C(=O)O)c1.Cl` [Compound 2 HCl salt, 3-(6-(1-(2,2-Difluorobenzo [d][1,3]dioxol-5-yl)cyclopropanecarboxamido)-3-methylpyridin-2-yl)benzoic acid.HCl salt], in data set [2] (setting [4]), the “physical stability of suspension” value is listed as “not physically stable” and the “conversion of salt form in suspension vehicle” value was “quickly converted to Compound 2 Form I”. For the same compound, in data set [2] (0.5% methylcellulose/0.5% polysorbate 80, listed as HCl salt), the “conversion of salt form in suspension vehicle” value was “quickly converted to Compound 2 Form I at T(0)”.
`CC(C)(CO)c1cc2cc(NC(=O)C3(c4ccc5c(c4)OC(F)(F)O5)CC3)c(F)cc2n1C[C@H](O)CO` [Compound 3, (S)-1-(2,2-difluorobenzo[d][1,3]dioxol-5-yl)-N-(1-(2,3-dihydroxypropyl)-6-fluoro-2-(1-hydroxy-2-methylpropan-2-yl)-1H-indol-5-yl)cyclopropanecarboxamide]: the solubility (in general, the concentration that dissolves in the medium under given conditions) in data set [3] (first solvent: ethyl acetate, ethanol, isopropyl alcohol, or acetone) is “greater than 20 mg/mL”; in data set [3] (organic solvent or mixture, acetonitrile, methanol, ethanol, isopropyl alcohol, acetone, read-out: solubility) it was greater than 20 mg/mL; in data set [3] (second solvent: heptane or water, water, read-out: solubility (poor)), less than 1 mg/mL.
